Holding throughout (assay type): cell-based, human
Experiment [1] deals with HSC3 cells. Kind of experiment: Phosphatidylserine externalization by flow cytometry (annexin V-FITC/PI). On the procedure: To study the effects of GANT61 on HSC3 cell viability, cycle, and death patterns, 4 mL of cellular solution (containing 0.7 × 10^5 cells/mL) was placed on 6-well plates and incubated overnight, to allow adhesion. […] For cell cycle analysis, the effects of GANT61 on HSC3 cells were also evaluated after 12 h of treatment. Negative controls were treated with the vehicle (0.2% DMSO) used to dilute the GLI inhibitor, and 5-fluorouracil (5-FU, 17 μM) was used as a positive control. All experiments were carried out in duplicate and repeated no less than three times. Cell viability was determined by the trypan blue exclusion method, in which 90 μL aliquots were collected at several incubation periods, stained with 10 μL trypan blue, and counted in a Neubauer chamber, under optical microscopy, at 20× magnification (Olympus CX41 Olympus, Tokyo, Japan).
Following treatment with GANT61, cells were labeled with annexin V-FITC and PI to determine cell viability (classified as viable, early apoptosis, late apoptosis, and necrosis), according to the manufacturer’s protocol (Becton Dickinson Biosciences, San José, CA, USA). Cells were acquired (10,000 events/sample) and analyzed on a BD LSRFortessa flow cytometer, using BD FACSDiva software version 6.2 (Becton Dickinson Biosciences, San José, CA, USA). The proportion of cells undergoing apoptosis was determined by the percentage of annexin labeling as quantified by the FlowJo program, version 10 (Flowjo LCC, Ashland, OR, USA). Cellular debris was omitted from our analyses.

Experiment [2] has as its system HSC3. Kind of experiment: alamarBlue cytotoxicity assay, HSC3. The conditions noted are these: 72 h of incubation. As to the method:
For cytotoxicity assessments, this study primarily focused on the highly metastatic HSC3 OSCC cell line (JCRB Cell Bank, Osaka, Japan) and employed other histological tumor cell types and non-tumor cells (Supplementary Table S1). HSC3 cells were placed in flasks ([…], 250 mL volume) containing DMEM medium (Gibco, Lif Technologies, Gaithesburg, MD, USA) supplemented with 10% fetal bovine serum (FBS, Gibco, Life Technologies, Gaithesburg, MD, USA) 1% penicillin, 1% streptomycin (Gibco, Life Technologies, Gaithesburg, MD, USA), and 0.8% hydrocortisone (Sigma-Aldrich, St. Louis, MO, USA). Cells were cultured and kept in incubators, under an atmosphere of 5% CO2 at 37 °C. Trypsinization was used to dissociate cells when cell growth reached the necessary confluence, i.e., 70 to 80% of the total culture flask volume. Cell cultures were tested periodically for mycoplasma contamination and evaluated by using a luminometer, according to the MycoAlert^TM PLUS protocol (Lonza, Walkersville Inc., Walkersville, MD, USA, 2012).
(§1) To assess the cytotoxicity of the GLI inhibitor GANT61 (Sigma-Aldrich, St. Louis, MO, USA) in tumor and non-tumor cell lines, an alamarBlue assay (Sigma-Aldrich Chemical Co, St. Louis, MO, USA) was performed after 72 h of exposure to the inhibitor, as described by Ahmed et al., 1994 [46]. Cells were distributed on 96-well plates at a density of 7 × 10^4 cells/mL for adhered cells, and 3 × 10^5 cells/mL for cells in suspension. All tested compounds were dissolved in DMSO, added to wells containing 100 µL of cells in complete medium, and then incubated for 72 h. Eight concentrations of GANT61 (0.19 to 50 µg/mL), Doxorubicin (Laboratory IMA S.A.I.C., Buenos Aires, Argentina), and 5-Fluorouracil (5-FU, Sigma-Aldrich, St. Louis, MO, USA), both used as positive controls at concentrations ranging from 0.03 to 5 µg/mL, were added to respective wells. Cells treated with the vehicle (0.5% DMSO) used to dilute the tested compounds were used as negative controls. Before the end of the incubation period (4 h for cell lines and 24 h for PBMCs), 20 µL of alamarBlue stock solution (resazurin, Sigma-Aldrich, St. Louis, MO, USA) was added to each well. Absorbance was measured at 570 nm (reduced) and 595 nm (oxidized) wavelengths, using a Spectramax 190 plate reader (Molecular Devices; Sunnyvale, CA, USA).
Statistical analyses were performed, using GraphPad Prism v. 6.03 (GraphPad Software, Inc., San Diego, USA). Data were analyzed according to distribution along the normal Gaussian curve. […] Differences between groups resulting from in vitro assays were evaluated by ANOVA (analysis of variance) testing, followed by the Student–Newman–Keuls test. […]

The test system of experiment [3] is CAL27. Kind of experiment: alamarBlue cytotoxicity assay, CAL27. On the procedure: as §1
Statistical analyses were performed, using GraphPad Prism v. 6.03 (GraphPad Software, Inc., San Diego, USA). Data were analyzed according to distribution along the normal Gaussian curve. IC50 values were obtained through non-linear regression, using results from three independent experiments carried out in duplicate. Differences between groups resulting from in vitro assays were evaluated by ANOVA (analysis of variance) testing, followed by the Student–Newman–Keuls test. This study considered a level of significance, corresponding to alpha (α) or “p” value, when results were less than or equal to 5%.

For experiment [4], the system named is Gli1 protein. Kind of experiment: Western blot of HH pathway proteins in HSC3 cells, Gli1. Conditions: 24 h. On the procedure: After culturing, HSC3 cells were washed with PBS and denatured by using cell lysis buffer containing 50 mM Tris-HCl (pH 7.4), 1% Triton X-100, 150 mM NaCl, 0.5 mM EGTA, 0.5 EDTA mM, and an anti-protease cocktail (Complete Pro-inhibitor Cocktail Tablets, Roche, Basel, Switzerland). Protein extracts (50 μg) were separated by SDS-PAGE and transferred to Hybond-C Extra (GE Healthcare, Chicago, IL, USA) nitrocellulose membranes. The following antibodies were used in the Western blot assay: mouse […] against Sonic Hedgehog (1:500, Clone 5 H4, Cat. number NBP2-22126, Novus Biologicals, Centennial, CO, USA), rabbit polyclonal against Gli1 (1:500, Novus Biologicals, Cat. number NB600-600), rabbit polyclonal against Patched 1 (1:500, Novus Biologicals, Cat.number NB200-118), and rabbit polyclonal against Smoothened (1:1000, Cat. number AB72130, Abcam, Cambridge, MA, USA). The secondary antibodies were anti-mouse IgG (1:10,000, Santa Cruz Biotechnology, Santa Cruz, CA, USA) and anti-rabbit IgG (1:10,000, GE Healthcare, Chicago, IL, USA). Signal detection was performed by using an ECL + Chemiluminescence Detection System (PerkinElmer, Villebon sur-Yvette, France). The antibody actin (1:10000, Cat. Number15 G5 A11/E2, Invitrogen, Carlsbad, CA, USA) was selected as an endogenous control for analysis of HH pathway component expression in HSC3 cells. […]
For orientation: Immunoblotting shows a protein as a band on a membrane.

Values joined by “and” are separate entries in the source; they are usually repeats but may differ in a detail not shown here. Equal values may be shown once.

On to `O=c1[nH]cc(F)c(=O)[nH]1` [5-FU, 5-fluorouracil], for which the cell apoptosis result in experiment [1] (5-FU positive control, only after 72 h) is given as “significantly increased cell apoptosis”. The half-maximal inhibitory concentration (IC50) (in general, the concentration at which inhibition is half-maximal) in experiment [2] worked out at 16.8 µM; in experiment [2] (Homo sapiens, HSC-3, 72 h), 17 µM; in experiment [3] (Homo sapiens, CAL-27, 72 h of incubation) it was 30.8 µM. In addition, the Gli1 protein levels entry in experiment [4] (HSC3, 17 µM) is listed as “reduce Gli1 protein levels”.

On to `CN(C)c1ccccc1CN1CCCN(Cc2ccccc2N(C)C)C1c1ccncc1` [GANT61], for which the cell apoptosis entry in experiment [1] (18 µM, 48 and 72 h) is on record as “significantly increased cell apoptosis”. The “exposure of phosphatidylserine on HSC3 cell surfaces” value in experiment [1] (36 µM, all times evaluated, vs DMSO (0.2%)) is “significantly higher exposure of phosphatidylserine”. Also, the IC50 in experiment [2] is 36 µM and 35.9 µM; in experiment [3] (72 h of incubation) it was over 116 µM. The Gli1 protein expression entry in experiment [4] (HSC3, 18 and 36 µM) is given as “reduced levels”.

The record behind these values is publication PMC7503713, “GANT61 Reduces Hedgehog Molecule (GLI1) Expression and Promotes Apoptosis in Metastatic Oral Squamous Cell Carcinoma Cells” (International Journal of Molecular Sciences, 2020).
